Experimental data: patent US7090853B2, “Noscapine derivatives as adjuvant compositions and methods of use thereof” (Emory University, priority 1999, dated 2006)
Entries after “also recorded” stand apart in the source; their conditions may differ.

Tests used:
[1] = system: E.G7-OVA cells; assay: Inhibition of E.G7-OVA tumor growth, i.p. or i.g. dosing; format: in vivo, C57BL/6 mice
Protocol: C57BL/6 mice were injected subcutaneously in the right flank with 2×10^6 E.G7-OVA cells. Three days later, mice were injected intraperitoneally, every day for three weeks, either with 200 μl saline (n=10), or with 3 mg noscapine dissolved in 200 μl saline (n=10). Third group of mice (n=10) was fed 3 mg noscapine via intragastric (i.g.) intubation using a 1 ml syringe fitted with a 20 gauge stainless steel ball point needle. After three weeks, all mice were sacrificed by cervical dislocation. Tumors were removed and weighed. Tumor weights were individually plotted and comparisons between control and treatment groups were analyzed by the Student's t test.

[2] = system: OVA; assay: OVA-specific immune responses of noscapine-treated tumor survivors after OVA in CFA; format: in vivo, B6 mice; settings: for IFNγ / cytokine production by lymph node CD4+ T cells / OVA-specific antibody responses: tumor survivors vs control mice, ELISA
Protocol: (FIG. 2A) antibody responses were measured by ELISA with OVA coated microtiter plates,
(FIG. 2B) IFNγ production by lymphnode cells was measured by ELlSA by comparison with recombinant IFNγ and
(FIG. 2C) CTL responses were measured using ^51Cr labeled target cells.
Untreated, control B6 mice and noscapine treated mice whose tumors regressed, were injected with OVA in CFA to test whether the tumor had induced tolerance to OVA. […] Moreover, the OVA-specific CTL response of mice that recovered from the tumor was enhanced by 10- to 30-fold compared to the response of non-tumor bearing controls (FIG. 2C) (14).

[3] = system: lymphocyte cells; assay: Apoptosis: oligonucleosomal DNA fragmentation, DAPI staining and nick end labeling; format: cell-based; settings: 20 μM Noscapine, 0 to 24 hr
Protocol: Oligonucleosomal fragmentation of genomic DNA was determined according to Walton, M. I. et. al., Cancer. Res. 53, 1853 (1993). An aliquot of 3.3×10^6 cells in 10 ml medium was incubated with 20 μM Noscapine ([…] DMSO solution) for different time periods ranging from 0 to 24 hr. At the end of incubation, cells were pelleted and washed twice with ice cold PBS, and lysed in 250 μl 1% (v/v) NP 40 detergent containing 0.5 mg/ml proteinase K in PBS solution on ice for 60 min. Samples were centrifuged, and the supernatants were removed and incubated with 5 μl 10 mg/ml RNase A at 37° C. for 40 min. An aliquot of 1 ml anhydrous ethanol was added, tubes were placed at −20° C. for 20 min., then centrifuged to pellet DNA. After the samples were dry, the same amount of DNA (10 μg) was electrophoresed at 80V for 3 hr. through a 2% agarose gel containing ethidium bromide in TAB buffer. DNA bands were visualized under […]. […]
Morphological changes in the nuclear chromatin of cells undergoing apoptosis were detected by staining with 4′,6-diamidino-2-phenylindole (DAPI). […] Following 15 min. incubation at room temperature, a 10 μl aliquot was placed on a glass slide, and 400 cells per slide were scored for the incidence of apoptotic chromatin changes with a fluorescence microscope. […] After the slides were rinsed with PBS for another 3 times, coverslips were mounted and analyzed with a light microscope.

[4] = Histology and general toxicity in noscapine-treated mice; format: in vivo, B6 mice
Protocol: FIGS. 3A–3I show B6 mice were injected subcutaneously with 2×10^6 E.G7-OVA tumor cells and after three days half of the mice were treated continuously with 1.5 or 3.0 mg noscapine/ml of drinking water. All of the untreated mice developed tumors and were euthanized after three weeks. […] Normal B6 mice (A–C) and mice treated for 3 months with noscapine (D–F) were euthanized.
FIGS. 4A–4D show B6 mice were treated with 1.5 mg noscapine/ml in their drinking water or acidified water, as a negative control. One week later mice were injected with OVA in CFA. Mice were sacrificed two weeks later. […] Thus, Noscapine had no detectable toxic effect on lymphoid cells that are proliferating in response to immunization. […] The response of the gut to Noscapine is one of mild irritation. […]

[5] = system: human bladder tumors; settings: nude mice; cited from earlier work
[6] = system: OVA; assay: Immune response to OVA in CFA in mice on oral noscapine; format: in vivo, B6 mice
Protocol: On day 0 all mice were injected with 200 μg OVA in CFA in the foot pad. Mice were bled individually on day 18 and their sera tested for antibody to OVA by ELISA (FIG. 5A). The mice were sacrificed on day 21 and their spleen cells cultured with E.G7-OVA for 6 days and their cytolytic activity measured with ^51Cr labeled cells (FIG. 5B).
The inventors believe that the damage caused to the mitotic apparatus of dividing cells must be repaired by normal cells but not the tumor cells at the tumor suppressive doses. Alternatively, the tumor suppressive effects of Noscapine may be unrelated to the anti-mitotic effect of the drug.

COc1ccc2c(c1OC)C(=O)O[C@@H]2[C@H]1c2c(cc3c(c2OC)OCO3)CCN1C [Noscapine]
tumor weight ([1]; 3 mg noscapine i.p. or i.g. every day for three weeks, vs saline): significantly reduced tumor weight
tumor cell growth and apoptosis of E.G7-OVA in vivo ([1]; given parenterally or by gastric gavage): arrested tumor cell growth and induced apoptosis
CTL responses after immunization with OVA in CFA ([2]; tumor survivors treated with Noscapine vs control mice, 51Cr labeled target cells): enhanced
IFNγ / cytokine production by lymph node CD4+ T cells [2]: indistinguishable from control mice
OVA-specific antibody responses [2]: indistinguishable from control mice
IFNγ / cytokine production by lymph node CD4+ T cells ([2]; listed as noscapine): identical
OVA-specific antibody responses ([2]; listed as noscapine): identical
DNA degradation (gel electrophoresis of fragmented genomic DNA, staining) [3]: progressive DNA degradation with increasing time of noscapine treatment
histology of small intestine ([4]; 1.5 mg noscapine/ml drinking water vs acidified water): mild edema of the villi and goblet cell hyperplasia; also recorded: edema, increased frequency of goblet cells, and prominent crypt cells
histology of spleen / lymph nodes ([4]; 1.5 mg noscapine/ml drinking water vs acidified water, immunized with OVA in CFA): no alterations from control mice; also recorded: no significant differences
liver inflammation ([4]; 3.0 mg dose of noscapine): few small areas of inflammation
histological evidence of toxicity to the kidney, liver, or heart ([4]; mouse, in vivo): no significant histological evidence of toxicity
health, body weight and appearance ([4]; noscapine in drinking water): healthy and had normal weights and appearance; also recorded: healthy and of the same weight as the control mice
number of mitotic figures in the crypts of the small intestine ([4]; noscapine in drinking water vs control mice): approximately equal
histology of heart, kidney and liver ([4]; treated for 3 months with noscapine in drinking water, H & E): no significant differences
regression of human bladder tumors [5]: caused regression
immune response to OVA in CFA ([6]; 1.5 mg noscapine/ml drinking water from day -7): no detectable adverse effect
primary antibody response ([6]; oral noscapine, ELISA day 18): did not inhibit
CTL response ([6]; oral noscapine, spleen cells day 21, 51Cr labeled cells): did not inhibit
